Experimental data as given in publication PMC11661381, “Covalent-fragment screening identifies selective inhibitors of multiple Staphylococcus aureus serine hydrolases important for growth and biofilm formation” (Research Square, 2024).

What was measured:
[1] = molecular target: T1, rFphH (Staphylococcus aureus, UniProt A0A0H2XJL0); assay: FP-Cy5 active site labeling of recombinant protein, rFphH; type: binding; settings: recombinant protein
T1 construct: otherwise full-length FphE (Uniprot ID Q2FDS6) and FphH (A0A0H2XJL0) proteins; His6 (3C-cleavable, pETNKI-his-3C-LIC vector) (N); made in house; E. coli is inferred from the pET28a-type vector, IPTG induction and LB/kanamycin
T1 sequence (A0A0H2XJL0 1-246): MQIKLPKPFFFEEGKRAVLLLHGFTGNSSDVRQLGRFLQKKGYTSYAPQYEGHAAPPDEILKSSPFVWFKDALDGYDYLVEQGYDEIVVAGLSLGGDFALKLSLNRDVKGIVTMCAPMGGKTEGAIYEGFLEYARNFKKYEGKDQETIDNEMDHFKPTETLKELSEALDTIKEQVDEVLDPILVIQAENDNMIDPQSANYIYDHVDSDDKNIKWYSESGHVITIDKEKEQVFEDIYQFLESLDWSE
Procedure: For activity-based protein labeling experiments, 500 nM of rFphB, rFphE and rFphH in 1X PBS and 0.1% Triton–X were preincubated with different concentrations of inhibitors or DMSO for 2hr at room temperature, followed by adding 300 nM of fluorophosphonate (FP) alkyne and incubated for 30 min at room temperature. Next, 20 μL of the reaction volume were mixed with 2.16 μL of freshly prepared click mix (0.5 μL of 50 mM CuSO4 in H2O, 1.16 μL of 100 mM BTTAA in DMSO, and 0.5 μL of N3-Cy5 in DMSO) and 1.16 μL of 300 mM sodium ascorbate solution in H2O. Samples were incubated at 37°C for 30 min, boiled in SDS loading buffer and analyzed by SDS–PAGE. Cy5 fluorescence was imaged using the Cy5 channel on a Typhoon 9410 Imager (Amersham Biosciences).

[2] = molecular target: T2, recombinant FphE (rFphE) (Staphylococcus aureus, UniProt Q2FDS6); assay: biochemical; settings: IC50 rFphE, value in nM
T2 construct: otherwise full-length FphE (Uniprot ID Q2FDS6) and FphH (A0A0H2XJL0) proteins; His6 (3C-cleavable, pETNKI-his-3C-LIC vector) (N); made in house; E. coli is inferred from the pET28a-type vector, IPTG induction and LB/kanamycin
T2 sequence (Q2FDS6 1-276): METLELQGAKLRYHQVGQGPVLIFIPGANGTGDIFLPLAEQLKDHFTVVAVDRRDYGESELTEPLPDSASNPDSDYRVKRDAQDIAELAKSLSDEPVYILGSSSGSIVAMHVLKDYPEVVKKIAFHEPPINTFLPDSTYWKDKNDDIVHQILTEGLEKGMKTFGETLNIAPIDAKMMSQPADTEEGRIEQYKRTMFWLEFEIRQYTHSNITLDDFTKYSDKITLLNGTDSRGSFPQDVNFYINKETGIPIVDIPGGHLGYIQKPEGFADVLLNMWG
Procedure: Fluorogenic substrate assays were performed as previously described[9],[11],[12]. […] Turnover rates in the linear phase of the reaction (10–20 min) were calculated using GraphPad prism 10.0 software as RFU/min. Rates were normalized by subtracting background hydrolysis rates measured for each substrate in reaction buffer in the absence of protein.
For the screening, 8 μL of enzyme solution was pipetted into the assay plates containing 50 nL compound and allowed to incubate for one hour at room temperature. […] For four-point dose response plates, 2.5, 10, 25, 50 nL droplets were transferred to get […], 10, 25, 50 μM compound concentrations in the 384 well plates again using an Echo acoustic liquid handler as above. […] Calculations were done with GraphPad Prism 10.0 software. […] IC50 values were derived from the fitted curve.

[3] = system: S. aureus biofilm formation; assay: Crystal violet biofilm inhibition assay; type: cell-based, Staphylococcus aureus; settings: fphH or fphE transposon mutant
Procedure: Overnight cultures of S. aureus (wild-type, transposon mutants and complemented) strains (Table S3) grown in TSB, were subcultured on fresh TSB and grown to OD600 of 0.5. Biofilms were cultured in 96 well plates by transferring 1 μL of the culture to 200 μL of TSB plus 1% glucose with or without the inhibitors and incubated for 16 hours at 37°C without agitation. The inhibitor concentrations ranged from 1, 5, 10, 50 and 100 μM final concentration. Equal volume of DMSO was added as control. The wells were washed to remove the planktonic cells and the plates air-dried before staining with 200μL of 0.1% w/v crystal violet for 10 minutes at room temperature. The wells were washed to remove excess dye and blotted to dry. Each well was filled with 200μL of DMSO for 10 minutes at room temperature to dissolve the dye. The absorbance was measured at 590 nm using Spark multimode microplate reader (TECAN). The data represents n = 3 independent experiments and are expressed as a percentage of the uninhibited wild-type bacteria. All the data are normalized such that 100% represent untreated WT S. aureus. P values were determined using ordinary one-way ANOVA multiple comparisons GraphPad Prism 10.0 software. *P < 0.05, **P < 0.01, ***P < 0.001 and ****P < 0.0001.

OB(O)c1csc2ccccc12 [Z27, Benzo[b]thiophen-3-ylboronic acid]
concentration inhibiting FP-Cy5 labeling of rFphH [1]: > 50 µM
IC50 [2]: 50 nM
effect on biofilm formation in transposon mutants (in words) [3]: further reduced by the inhibitor Z27 only at the highest concentrations used (50 and 100 μM)
